Structures can show the parent of a compound that is named as a salt.
Key:
[1] = target: T1, human M1 receptor (hCHRM1) (Homo sapiens, UniProt P11229); experiment: Measurement of M1 receptor positive allosteric modulator (M1PAM) activity, Ca2+ fluorescence by FDSS/μ cell (Experimental Example 2); type: cell-based; conditions: for activity (%) at 10 μM: 10 μM test compound, 100% = acetylcholine 1 μM, 0% = DMSO; for EC50: inflection point of concentration-dependent curve, in presence of acetylcholine at EC20 (0.8-1.0 nM), CHO-K1 cells expressing hCHRM1, read-out: IP value
T1 construct: expressed in transfected cells
T1 sequence (P11229 1-460): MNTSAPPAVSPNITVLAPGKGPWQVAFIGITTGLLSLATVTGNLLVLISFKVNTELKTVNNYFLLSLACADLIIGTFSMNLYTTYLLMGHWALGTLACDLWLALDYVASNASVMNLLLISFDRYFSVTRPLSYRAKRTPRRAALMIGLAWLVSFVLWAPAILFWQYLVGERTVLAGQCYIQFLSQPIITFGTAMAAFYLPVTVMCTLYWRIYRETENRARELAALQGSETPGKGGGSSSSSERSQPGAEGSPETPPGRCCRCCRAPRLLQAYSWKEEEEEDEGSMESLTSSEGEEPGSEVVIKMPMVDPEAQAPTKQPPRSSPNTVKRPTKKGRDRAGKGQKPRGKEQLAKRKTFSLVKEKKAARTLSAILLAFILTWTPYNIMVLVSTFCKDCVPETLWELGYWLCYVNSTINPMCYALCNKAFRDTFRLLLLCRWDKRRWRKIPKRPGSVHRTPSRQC
Method: Measurement of M1 Receptor Positive Allosteric Modulator (M1PAM) Activity
The activity of a test compound in the presence of acetylcholine at EC20 concentration (final concentration 0.8-1.0 nM), which affords an action corresponding to about 20% of the maximum activity, was measured as PAM activity. The method is as follows. CHO-K1 cells stably expressing a human M1 receptor (hCHRM1) were plated on a 384-well black clear bottom plate (BD Falcon) at 5,000 cells/well, and cultured in an incubator at 37° C., 5% CO2 for 1 day. The medium in the cell plate was removed, and a dye solution (prepared by adding Recording medium (DOJINDO LABORATORIES) to a final concentration of 1×concentration, Fluo-4 AM (DOJINDO LABORATORIES) to a final concentration of 2.5 μg/mL, Pluronic F127 (DOJINDO LABORATORIES) to a final concentration of 0.08%, and probenecid (DOJINDO LABORATORIES) to a final concentration of 1.25 mM to assay buffer (HBSS (Invitrogen), 20 mM HEPES (Invitrogen), 0.1% BSA (Wako Pure Chemical Industries, Ltd.))) was added at 30 μL/well. The cells were left standing in the incubator at 37° C., 5% CO2 for 30 min, and further left standing at room temperature for 30 min. A test compound prepared by diluting with assay buffer containing 3.2-4.0 nM acetylcholine was added at 10 μL/well, and the fluorescence was measured by FDSS/μ cell (Hamamatsu Photonics K.K.) for 1 min every 1 second. With the definition that the amount of change in the fluorescence on addition of acetylcholine (final concentration 1 μM) is 100% and that on addition of DMSO instead of a test compound is 0%, the activity (%) of the test compound was calculated, and the inflection point in the concentration-dependent curve of the test compound was calculated as IP values.

[2] = target: T1, human M1 receptor (hCHRM1); experiment: Measurement of M1 receptor positive allosteric modulator (M1PAM) activity, Ca2+ fluorescence by FLIPRtetra (Experimental Example 1); type: cell-based; conditions: for activity (%) at 10 μM: 10 μM test compound, 100% = acetylcholine 1 μM, 0% = DMSO; for EC50: inflection point of concentration-dependent curve, in presence of acetylcholine at EC20 (0.8-1.0 nM), CHO-K1 cells expressing hCHRM1, read-out: IP value
Method in brief: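 CHO-K1 cells stably expressing hCHRM1, loaded with Fluo-4 AM (probenecid), received compound with acetylcholine at EC20 (final 0.8-1.0 nM); Ca2+ fluorescence read 1 min by FLIPRtetra. Activity scaled 0% (DMSO) to 100% (1 μM acetylcholine); IP from inflection point of concentration curve.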

SMILES	activity (%) at 10 μM [1]	EC50 [1]	activity (%) at 10 μM [2]	EC50 [2]
Cc1c(Cc2ccc(-n3cccn3)cc2)cc2c(c1F)OCN(CC(C)(C)O)C2=O [Example 101, 8-fluoro-3-(2-hydroxy-2-methylpropyl)-7-methyl-6-(4-(1H-pyrazol-1-yl)benzyl)-2,3-dihydro-4H-1,3-benzoxazin-4-one]	91%	61 nM		
CCc1cc2c(cc1Cc1ccc(OC)nc1)C(=O)N([C@H]1COCC[C@@H]1O)CO2 [Example 118, 1,5-anhydro-2,4-dideoxy-2-(7-ethyl-6-((6-methoxypyridin-3-yl)methyl)-4-oxo-2H-1,3-benzoxazin-3(4H)-yl)-L-threo-pentitol]	116%	47 nM		
Cc1c(Cc2ccc(-n3cccn3)nc2)cc2c(c1Cl)OCN([C@H]1CCC[C@@H]1O)C2=O (single isomer, unassigned) [Example 97, 8-chloro-3-(trans-2-hydroxycyclopentyl)-7-methyl-6-((6-(1H-pyrazol-1-yl)pyridin-3-yl)methyl)-2,3-dihydro-4H-1,3-benzoxazin-4-one (optical isomer: longer retention time)]	99%			
Cc1ccc(Cc2cc3c(c4ccccc24)OCN([C@H]2COCC[C@@H]2O)C3=O)cn1 (single isomer, unassigned) [Example 3, 1,5-anhydro-2,4-dideoxy-2-(6-((6-methylpyridin-3-yl)methyl)-4-oxo-2H-naphtho[2,1-e][1,3]oxazin-3(4H)-yl)-threo-pentitol monohydrochloride (optical isomer)]			103%	2.5 nM
Cc1ccc(Cc2cc3c(cc2C)OCN([C@H]2CCC[C@@H]2O)C3=O)cn1 [Example 64, 3-((1S,2S)-2-hydroxycyclopentyl)-7-methyl-6-((6-methylpyridin-3-yl)methyl)-2,3-dihydro-4H-1,3-benzoxazin-4-one]			99%	34 nM
Cc1cc2c(cc1Cc1ccc(-n3cccn3)nc1)C(=O)N([C@H]1CCCC[C@@H]1O)CO2 (relative stereo) [Example 36, 3-(trans-2-hydroxycyclohexyl)-7-methyl-6-((6-(1H-pyrazol-1-yl)pyridin-3-yl)methyl)-2,3-dihydro-4H-1,3-benzoxazin-4-one]			108%	12 nM
Cc1c(Cc2ccc(-n3cccn3)cc2)cc2c(c1F)OCN([C@H]1CCC[C@@H]1O)C2=O [Example 5, 8-fluoro-3-((1S,2S)-2-hydroxycyclopentyl)-7-methyl-6-(4-(1H-pyrazol-1-yl)benzyl)-2,3-dihydro-4H-1,3-benzoxazin-4-one]			104%	8.5 nM
Cc1cc2c(cc1Cc1ccc(Cl)nc1)C(=O)N([C@H]1CCC[C@@H]1O)CO2 [Example 34, 6-((6-chloropyridin-3-yl)methyl)-3-((1S,2S)-2-hydroxycyclopentyl)-7-methyl-2,3-dihydro-4H-1,3-benzoxazin-4-one]			96%	53 nM

Next, values leading:

activity (%) at 10 μM [1]	EC50 [1]	activity (%) at 10 μM [2]	EC50 [2]	SMILES
98%	8.7 nM			Cc1c(Cc2ccc(-n3cccn3)nc2)cc2c(c1F)OCN([C@H]1COCC[C@@H]1O)C2=O [Example 102, 1,5-anhydro-2,4-dideoxy-2-(8-fluoro-7-methyl-4-oxo-6-((6-(1H-pyrazol-1-yl)pyridin-3-yl)methyl)-2H-1,3-benzoxazin-3(4H)-yl)-L-threo-pentitol]
96%	7 nM			Cc1c(Cc2ccc3nn(C)cc3c2)cc2c(c1C)OCN([C@H]1COCC[C@@H]1O)C2=O [Example 116, 1,5-anhydro-2,4-dideoxy-2-(7,8-dimethyl-6-((2-methyl-2H-indazol-5-yl)methyl)-4-oxo-2H-1,3-benzoxazin-3(4H)-yl)-L-threo-pentitol]
102%	13 nM			Cc1cc2c(cc1Cc1ccc(-n3cccn3)nc1)C(=O)N([C@H]1CCCC[C@@H]1O)CO2 (single isomer, unassigned) [Example 95]
99%	4.4 nM			Cc1c(Cc2ccc(-c3ccn(C)n3)cc2)cc2c(c1C)OCN([C@H]1COCC[C@@H]1O)C2=O [Example 100, 1,5-anhydro-2,4-dideoxy-2-(7,8-dimethyl-6-(4-(1-methyl-1H-pyrazol-3-yl)benzyl)-4-oxo-2H-1,3-benzoxazin-3(4H)-yl)-L-threo-pentitol]
99%	4.8 nM			C=Cc1ccc(Cc2cc3c(c(C)c2C)OCN([C@H]2COCC[C@@H]2O)C3=O)cn1 [Example 110, 1,5-anhydro-2,4-dideoxy-2-(7,8-dimethyl-4-oxo-6-((6-vinylpyridine-3-yl)methyl)-2H-1,3-benzoxazin-3(4H)-yl)-L-threo-pentitol]
113%	6.9 nM			Cc1c(Cc2ccc(-n3cccn3)nc2)cc2c(c1Cl)OCN([C@H]1COCC[C@@H]1O)C2=O [Example 106, 1,5-anhydro-2-(8-chloro-7-methyl-4-oxo-6-((6-(1H-pyrazol-1-yl)pyridin-3-yl)methyl)-2H-1,3-benzoxazin-3(4H)-yl)-2,4-dideoxy-L-threo-pentitol]
97%	2.9 nM			Cc1c(Cc2ccc(-c3ccn(C)n3)nc2)cc2c(c1Cl)OCN([C@H]1CCC[C@@H]1O)C2=O [Example 99, 8-chloro-3-((1S,2S)-2-hydroxycyclopentyl)-7-methyl-6-((6-(1-methyl-1H-pyrazol-3-yl)pyridin-3-yl)methyl)-2,3-dihydro-4H-1,3-benzoxazin-4-one]
102%	12 nM			Cc1c(Cc2ccc(-c3ccnc(F)c3)nc2)cc2c(c1F)OCN([C@H]1CCC[C@@H]1O)C2=O [Example 89, 8-fluoro-6-((2′-fluoro-2,4′-bipyridin-5-yl)methyl)-3-((1S,2S)-2-hydroxycyclopentyl)-7-methyl-2,3-dihydro-4H-1,3-benzoxazin-4-one]
102%	4 nM			Cc1cc(-c2ccc(Cc3cc4c(c(F)c3C)OCN([C@H]3CCC[C@@H]3O)C4=O)cn2)ccn1 [Example 90, 8-fluoro-3-((1S,2S)-2-hydroxycyclopentyl)-7-methyl-6-((2′-methyl-2,4′-bipyridin-5-yl)methyl)-2,3-dihydro-4H-1,3-benzoxazin-4-one]
103%	4.9 nM			Cc1c(Cc2ccc(-n3cccn3)nc2)cc2c(c1C)OCN([C@H]1COCC[C@@H]1O)C2=O [Example 98, 1,5-anhydro-2,4-dideoxy-2-(7,8-dimethyl-4-oxo-6-((6-(1H-pyrazol-1-yl)pyridin-3-yl)methyl)-2H-1,3-benzoxazin-3(4H)-yl)-L-threo-pentitol]
101%	10 nM			Cc1cc2c(cc1Cc1ccc(Cl)nc1)C(=O)N([C@H]1CCCC[C@@H]1O)CO2 [Example 140, 6-((6-chloropyridin-3-yl)methyl)-3-((1S,2S)-2-hydroxycyclohexyl)-7-methyl-2,3-dihydro-4H-1,3-benzoxazin-4-one]
98%	5.6 nM			Cc1cc(-c2ccc(Cc3cc4c(c(F)c3C)OCN([C@H]3CCC[C@@H]3O)C4=O)cc2)cnn1 [Example 105, 8-fluoro-3-((1S,2S)-2-hydroxycyclopentyl)-7-methyl-6-(4-(6-methylpyridazin-4-yl)benzyl)-2,3-dihydro-4H-1,3-benzoxazin-4-one hydrochloride]
97%	5.7 nM			COc1ccc(Cc2cc3c(c(Cl)c2C)OCN([C@H]2COCC[C@@H]2O)C3=O)cn1 [Example 109, 1,5-anhydro-2-(8-chloro-6-((6-methoxypyridin-3-yl)methyl)-7-methyl-4-oxo-2H-1,3-benzoxazin-3(4H)-yl)-2,4-dideoxy-L-threo-pentitol]

From patent US10323027B2, “2,3-dihydro-4H-1,3-benzoxazin-4-one derivatives as modulators of cholinergic muscarinic M1 receptor” (Takeda Pharmaceutical Company Limited, priority 2015, dated 2019)
